Results from patent US7910363B1, “Lipophilic polyamines providing enhanced intracellular delivery of agents by a polyamine transport system” (University of Central Florida Research Foundation, Inc., priority 2007, dated 2011).

Legend:
CHO K1 cells [1] = assay: eGFP DNA plasmid transfection, GFP expression by FACS (FIG. 10, FIG. 11); assay type: cell-based, Chinese hamster; details: for % GFP positive cells (transfection efficiency): 5 μg/mL dose
Method: Medium was then changed, and cells were incubated for another 24 h to allow for GFP plasmid expression; cells were detached by trypsin treatment and analyzed for GFP expression by FACS; Lipofectamine is denoted as LFA; the value obtained with DNA plasmid only was subtracted from each entry above (almost negligible);
In order for the ‘therapy’ to be effective, the DNA must escape from the endosome and enter the cell's nucleus, be transcribed to a regulatory, non coding RNA (RNAi) or to mRNA that is translated into its coded protein. Therefore, we investigated the conjugate-assisted expression of an eGFP DNA plasmid encoding for the green fluorescent protein (GFP). CHO cells, which were successfully transfected, were easily identified by their green fluorescence. Control experiments conducted with only the eGFP DNA plasmid (and no lipid carrier) gave virtually no fluorescence. A gate or instrumental threshold was set based upon this low background fluorescence. Fluorescence detected above this background was considered a positive response.
Medium was then changed, and cells were incubated for another 24 h to allow for GFP plasmid expression. Cells were detached by trypsin treatment and analyzed for GFP expression by FACS. Lipofectamine is denoted as LFA. The value obtained with DNA plasmid only was subtracted from each entry above (almost negligible).
A gate was set just above the threshold measured with no DNA plasmid and no conjugate added (almost negligible). […] Data are presented as the mean±SD.
(§1) GFP transfection experiments—eGFP encoding DNA plasmid with or without cationic lipid was mixed in F12K and incubated with pre-rinsed, sub-confluent cells in 24-well plates for 4 h, followed by another incubation period of 24 h in growth medium. Cells were then washed with PBS, detached by trypsin treatment, dissolved in PBS, 1% BSA, and analyzed by FACS for GFP expression.

CHO K1 cells [2] = details: for DNA uptake compared with the lipofectamine control: 0.5, 2.5, 5 μg/mL; for increase in DNA uptake/delivery over diamine 22: FIG. 8, 5 μg/mL dose; for DNA uptake, fluorescence of imported Alexa Fluor-488-DNA: 5 μg/mL cationic lipid (black bars, FIG. 8), 1 μg/mL DNA, 4 h at 37° C.
Method: CHO K1 cells were grown to confluence in 24-well plates, rinsed with medium and incubated for 4 h at 37° C. with 1 μg/mL Alexa Fluor-488-DNA complexed with 0.5 μg/mL (white bars), 2.5 μg/mL (gray bars), or 5 μg/mL (black bars) of the respective cationic lipid, as indicated above each entry; cells were then extensively washed with PBS, treated with trypsin, and cell pellets were again extensively washed with PBS 1% BSA to completely remove non-specific fluorescence from the cell exterior; finally, cells were analyzed for Alexa Fluor-488-DNA uptake by flow cytometry on a FACSCalibur (BD Biosciences) operated by Cell-Quest software.
CHO K1 cells were grown to confluence in 24-well plates, rinsed with medium and incubated for 4 h at 37° C. with 1 μg/mL Alexa Fluor-488-DNA complexed with 0.5 μg/mL (white bars), 2.5 μg/mL (grey bars), or 5 μg/mL (black bars) of the respective cationic lipid, as indicated above each entry. Cells were then extensively washed with PBS, treated with trypsin, and cell pellets were again extensively washed with PBS 1% BSA to completely remove non-specific fluorescence from the cell exterior. Finally, cells were analyzed for Alexa Fluor-488-DNA uptake by flow cytometry on a FACSCalibur (BD Biosciences) operated by Cell-Quest software.
A gate was set just above the threshold signal for control cells (DNA only with no lipid conjugate). […] Data are presented as the mean±SD.
AlexaFluor-488 labeled DNA with or without cationic lipid was mixed in serum-free F12K and added to extensively rinsed cells grown in 24-well plates. Cells were then incubated for 4 h at 37° C. After removal of the incubation medium and rinsing with PBS, cells were detached with trypsin followed by extensive washing with ice-cold PBS, 1% (w/v) bovine serum albumin (BSA) to remove non-specific fluorescence. Finally, cells were suspended in PBS, 1% BSA and analyzed for DNA uptake by flow cytometry on a FACSCalibur (BD Biosciences) operated by Cell-Quest software.

HeLa cells [3] = details: cited from earlier work
[4] = test system: polyamine transporter, PAT; assay: [14C]Spermine uptake inhibition (competition assay) in CHO-K1 cells (FIG. 12); assay type: cell-based, Chinese hamster
Excerpt: We theorized that 26 may be using the polyamine transporter, PAT, for cellular entry. […] This observation implied that 26 was able to compete for the polyamine recognition sites on the cell surface (e.g., PAT). Therefore, it is possible that certain lipophilic polyamines, which present the correct polyamine ‘message’, may be able to recognize and target cells expressing high levels of polyamine transporters on their cell surface (e.g., cancer cells, rapidly dividing tumors, etc.). However, as shown in this report, delivery into the cell is just one step in successful gene transfection. Nevertheless, the findings disclosed herein are an important first step in developing ‘smart’ transfection agents.

[5] = test system: DU145 human prostate cancer cells; assay: Lipopolyamine-induced sensitization to FGF-saporin intoxication, DU145; assay type: cell-based
Method: (§2) We have also documented lipopolyamine-induced toxin sensitization with two other saporin-based toxins: (i) FGF-saporin, a chemical conjugate between fibroblast growth factor and saporin; and (ii) the OKT10 immunotoxin which consists of a chemical conjugate between saporin and an antibody that recognizes the CD38 cancer antigen. DU145 human prostate cancer cells exposed to lipopolyamine 26 and FGF-saporin were 85-fold more sensitive to intoxication than cells incubated with FGF-saporin alone. […] We have also shown that Ramos human leukemia cells exposed to lipopolyamine 26 and OKT10 are 100-fold more sensitive to intoxication than cells incubated with OKT10 alone.

HeLa cells [6] = assay: Sensitization to FGF-saporin intoxication in non-target HeLa cells; assay type: cell-based; details: which do not express the FGF receptor
[7] = test system: Ramos human leukemia cells; assay: Sensitization to OKT10 immunotoxin intoxication, Ramos; assay type: cell-based
Method: as §2

CHO K1 cells [8] = assay type: cell-based; details: Chinese hamster, 24 h, 0.5 μM
Method: Taking these factors into account, cytotoxicity screens were performed to investigate the relative toxicity of each system. Most materials were relatively non-toxic with IC50 values ≧20 μM. Armed with this insight, cells were treated with ≦6.4 μM of the polyamine conjugate so as to avoid significant toxic effects from the delivery agent itself. Indeed, at this dose ≧90% of cells survived transfection for all compounds except 28. Indeed, compound 28 was very toxic (after 24 h incubation) and even at the lowest dose used for transfection (0.5 μg/mL; 0.5 μM 28) killed 95% of the cells. As such, 28 was too toxic for efficient transfection at the doses surveyed and its data is strongly biased by the few remaining cells, which survived.
as §1

| SMILES | % GFP positive cells (transfection efficiency) (CHO K1 cells [1]; FIG. 11) | DNA uptake compared with the lipofectamine control (CHO K1 cells [2]; FIG. 8) | increase in DNA uptake/delivery over diamine 22 (CHO K1 cells [2]) | GFP expression/cell (CHO K1 cells [1]; 5 μg/mL, FIG. 10) | DNA uptake, fluorescence of imported Alexa Fluor-488-DNA (CHO K1 cells [2]) | further results |
| --- | --- | --- | --- | --- | --- | --- |
| CCCCCCCCC=CCCCCCCCCOc1ccc(C(=O)NCCCCNCCCCN)cc1OCCCCCCCCC=CCCCCCCCC.Cl.Cl [Compound 27, N-[4-(4-Amino-butylamino)-butyl]-3,4-bis-octadec-9-enyloxy-benzamide, dihydrochloride salt] | 40% | better | greater than 4 fold | – | – | transfection efficiency compared with 22 (CHO K1 cells [1]; FIG. 11): nearly identical transfection efficiency; DNA delivery compared with 22 (CHO K1 cells [2]; FIG. 8): more efficient DNA delivery agent than 22 |
| CCCCCCCCC=CCCCCCCCCOc1ccc(CNCCOCCOCCN)cc1OCCCCCCCCC=CCCCCCCCC.Cl.Cl [Compound 24, 2-{2-[2-(3,4-Bis-octadec-9-enyloxy-benzylamino)-ethoxy]-ethoxy}-ethylamine, dihydrochloride salt] | 25% | as good | – | 7 a.u. | – | DNA delivery (DNA probe fluorescence) of polyether eight-atom spacer versus octanediamine analogue (CHO K1 cells [2]; FIG. 8): nearly doubled |
| CCCCCCCCCCCCCCCCCCN(CCCCCCCCCCCCCCCCCC)C(=O)CNC(=O)CNCCCNCCCCNCCCN [RPR 120535] | – | – | – | – | – | more effective at transfection than branched-, globular- or T-shaped polar domains (HeLa cells [3]): 5-10 times |
| CCCCCCCCC=CCCCCCCCCOc1ccc(CNCCCCN)cc1OCCCCCCCCC=CCCCCCCCC.Cl.Cl [Compound 22, N^1-(3,4-Bis-octadec-9-enyloxy-benzyl)-butane-1,4-diamine, dihydrochloride salt] | 38% | – | – | – | 94 a.u. | – |
| CCCCCCCCC=CCCCCCCCCOc1ccc(CNCCCCNCCCCNCCCCN)cc1OCCCCCCCCC=CCCCCCCCC.Cl.Cl.Cl.Cl [Compound 26, N-[4-(4-Amino-butylamino)-butyl]-N′-(3,4-bis-octadec-9-enyloxy-benzyl)-butane-1,4-diamine, tetrahydrochloride salt] | 67% | better | > 5 fold | 25 a.u. | 504 a.u. | higher transfection efficiency than the LFA control (CHO K1 cells [1]; 5 μg/mL, FIG. 11): over 50%; relative GFP expression/cell versus LFA (CHO K1 cells [1]; FIG. 10): two fold higher; % of GFP positive cells relative to LFA (CHO K1 cells [1]; FIG. 11): 1.5 fold; IC50 ([4]; 1 μM [14C]spermine, 20 min, serum free medium, CHO-K1): ~10 µM; polyamine uptake inhibition ([4]; FIG. 12 legend): efficient inhibitor of polyamine uptake; sensitivity to FGF-saporin intoxication versus FGF-saporin alone [5]: 85 fold; sensitization of non-target cells to FGF-saporin (HeLa cells [6]): no more sensitive to intoxication; sensitivity to OKT10 intoxication versus OKT10 alone [7]: 100 fold; DNA delivered to the cell relative to control LFA (CHO K1 cells [2]; black bars in FIG. 8, 5 μg/mL): 3 fold |
| CCCCCCCCC=CCCCCCCCCOc1ccc(CNCCCCCCCCN)cc1OCCCCCCCCC=CCCCCCCCC.Cl.Cl [Compound 23, N^1-(3,4-Bis-octadec-9-enyloxy-benzyl)-octane-1,8-diamine, dihydrochloride salt] | 23% | – | – | 5 a.u. | – | positive cells of the total cell population after DNA uptake experiment (CHO K1 cells [2]; 5 μg/mL, black bars in FIG. 9, gated): 84% |
| CCCCCCCCC=CCCCCCCCCOc1ccc(C(=O)NCCCCNCCCCNCCCCN)cc1OCCCCCCCCC=CCCCCCCCC.Cl.Cl.Cl [Compound 28, N-{4-[4-(4-Amino-butylamino)-butylamino]-butyl}-3,4-bis-octadec-9-enyloxy-benzamide, trihydrochloride salt] | – | – | – | – | – | cells killed (CHO K1 cells [8]): 95% |
| CCCCCCCCC=CCCCCCCCCOc1ccc(CNCCCCNCCCCN)cc1OCCCCCCCCC=CCCCCCCCC.Cl.Cl.Cl [Compound 25, N-(4-Amino-butyl)-N′-(3,4-bis-octadec-9-enyloxy-benzyl)-butane-1,4-diamine, tri hydrochloride salt] | 49% | as good | 3 fold | – | 281 a.u. | transfection efficiency compared with 22 (CHO K1 cells [1]; FIG. 11): only slightly higher transfection efficiency than 22; DNA delivery compared with 22 (CHO K1 cells [2]; FIG. 8): three-fold increase |
